The subject of one experiment is Wild type mice. Description: Osteocalcin subcutaneous infusion in wt mice: insulin sensitivity after insulin injection. It counts as in vivo, mouse. The settings on record: 0.3 or 3 ng/hour s.c. for 18 days, then single insulin injection, 0-120 minutes, vs PBS. On the procedure: FIG. 12. […] Wt mice were infused subcutaneously with indicated doses of recombinant osteocalcin or PBS for 18 days before receiving a single injection of insulin. Blood glucose was measured thereafter at indicated times.
For glucose tolerance test (GTT), glucose (2 g/kg body weight (BW)) was injected intraperitoneally (IP) after an overnight fast and blood glucose was monitored using blood glucose strips and the Accu-Check glucometer (Roche) at indicated times. For glucose stimulated insulin secretion test (GSIS), glucose (3 g/kg BW) was injected IP after an overnight fast; sera were collected from tails and insulin measured as described (Mauvais-Jarvis et al., 2000). For insulin tolerance test (ITT), mice were fasted for six hours, injected IP with insulin (0.2 U/kg BW) and blood glucose levels were measured at indicated times as described (Mauvais-Jarvis et al., 2002). ITT data are presented as percentage of initial blood glucose concentration. […] Streptozotocin ([…] single injection, Sigma) was injected IP and blood glucose measured as described above every 2 days thereafter. […] Food intake was measured using metabolic cages as the daily change of food weight. Energy expenditure was measured using metabolic cages connected to a calorimeter (Columbus Instrument). Heat values (Kcal/Hr) were recorded over 2 days and reported to each mouse BW. […]

In another experiment the test system is Wild type adipocytes. As to the kind of experiment: Adiponectin expression in wt adipocytes treated with osteocalcin (real time PCR). It counts as cell-based, mouse. Conditions: wild type adipocytes treated for 4 hours; real time PCR; vs vehicle. The source says:
FIG. 7. Esp−/− Mice Are a Model of Increased Osteocalcin Bioactivity. (A-G) Comparison between 6-week-old WT, Esp−/, Ocn+/−, and Esp−/−; Ocn+/− mice. (A) Blood glucose levels. (B) Serum insulin levels. (C) Serum adiponectin levels. (D) GTT. (E) ITT. (F) GSIS test. (G) Quantification of the number of Ki67-immunoreactive cells in pancreatic islets. […] (J) Expression of Adiponectin in WT adipocytes cocultured with osteoblasts treated with warfarin or vehicle. (K) Expression of Adiponectin in WT adipocytes cultured in presence of vehicle or of 1 ng/ml of commercially available carboxylated osteocalcin (Immunotopics) or bacterially produced uncarboxylated osteocalcin. (L) Expression of Insulin and Cyclin D1 in WT islets cultured in presence of 0.3 ng/ml of bacterially produced uncarboxylated osteocalcin or vehicle. (M) Metabolic parameters and total serum osteocalcin levels in control and obese patients. (N-O) Quantification of carboxylated osteocalcin (HA-bound osteocalcin) in control and obese patients. In (A)-(C) and (G)-(L): *p<0.05 versus WT (Student's t test); in (D)-(F), °p<0.05 versus WT and *p % 0.001 versus WT (ANOVA followed by post hoc analysis).
FIG. 15. […] Wt adipocytes were treated for 4 hours with recombinant full-length osteocalcin (1-46) or a truncated form (1-36) or vehicle. Adiponectin expression was then quantified by real time PCR.
Primary adipocytes were isolated from epididymal fat pads by collagenase digestion. Briefly, minced adipose tissue was digested by 1 mg/ml collagenase P in KRP Buffer (20 mM HEPES, 120 mM NaCl, 6 mM KCl, 1.2 mM MgSO4, 1 mM CaCl2, 0.6 mM Na2HPO4, 0.4 mM NaH2PO4, 2.5 mM D-glucose, 2% BSA, pH 7.4) for 1 h at 37° C. The isolated cells were washed twice with KRP Buffer before being cultured in αMEM/1% FBS at 37° C. in 5% CO2.
All gene expression analyses were performed using real time PCR. DNAse I-treated total RNA was converted to cDNA with the SuperScript III kit (Invitrogen). Real-time PCR were performed using the Taq SYBR Green Supermix with ROX (Biorad) on an MX3000 instrument (Stratagene); beta-actin amplification was used as an internal reference for each sample. All primers were from SuperArray.
Experiments were performed to test whether truncated osteocalcin was as effective as full-length uncarboxylated osteocalcin in stimulating adiponectin secretion from mouse adipocytes in vitro. Wild type adipocytes were treated for 4 hours with recombinant full-length osteocalcin (1-46) or a truncated form (1-36) (having a deletion of the […] ten amino acids from the C-terminal end) or vehicle. Adiponectin expression was then quantified by real time PCR. […]

Ends that are not written are not given here.

Regarding “uncarboxylated osteocalcin: Recombinant mouse osteocalcin bacterially produced, cleaved from GST with thrombin; completely undercarboxylated at all three sites (YLGASVPSPDPLEPTREQCELNPACDELSDQYGLKTAYKRIYGITI; not fully specified; ends and bridges not checked; UniProt P86546 50-95, looked up)”, the insulin sensitivity entry is on record as “increased” in the experiment with Wild type mice and “increases insulin sensitivity” with Wild type mice (listed as recombinant osteocalcin). Besides, in the experiment on Wild type adipocytes, the Adiponectin expression increase is reported as around 1.5 fold.

(Values after US9518976B2, “Methods for identifying or assaying for agents that increase beta-cell proliferation, insulin secretion, insulin sensitivity, glucose tolerance and decrease fat mass” (The Trustees of Columbia University in The City of New York, priority 2006, dated 2016).)
